Measured values published in article PMC10895652, “Preclinical Evaluation of Novel Positron Emission Tomography (PET) Probes for Imaging Leucine-Rich Repeat Kinase 2 (LRRK2)” (Journal of Medicinal Chemistry, 2024).

What was measured:
[1] = Ex vivo whole-body biodistribution in mice; design: species or system CD-1 mice; details: for Ex vivo biodistribution: mean ± SD, n = 4
Description: The general procedure for ex vivo biodistribution studies was described previously[35],[41] with minor modification in this work. Briefly, a solution of [^18F]4 (50 μCi/100 μL) was injected into CD-1 mice via tail vein. These mice (each time point n = 4) were sacrificed at 5, 15, 30, and 60 min post tracer injection. Major organs, including whole brain, heart, liver, lung, spleen, kidneys, small intestine (including contents), muscle, and blood samples, were quickly harvested and weighted. The radioactivity present in these tissues was measured using a Cobra Model 5002/5003 γ counter, and all radioactivity measurements were automatically decay-corrected based on the half-life of fluorine-18. The results are expressed as the percentage of injected dose per gram of wet tissue (%ID/g).

LRRK2 = biological target: T1, LRRK2 (Rattus norvegicus, UniProt F1LNJ1); experiment: In vitro autoradiography in rat brain sections; format: binding
T1 construct: from tissue; host or cells: rat brain (Sprague-Dawley rats)
Description: The general procedure for autoradiography studies was described previously with minor revision in this work.[36],[40] Brain sections from rats were preincubated with Tris-HCl buffer (50 mM), MgCl2 (1.2 mM) and CaCl2 (2 mM) solution for 20 min at ambient temperature, followed by incubation with [^11C]3 and [^18F]4 (0.48 nM). […] After incubation, brain sections were rinsed with ice-cold buffer 3 times for 2 min and dipped in cold distilled water for 10 s. The brain sections were dried with cold air and then placed on imaging plates (BAS-MS2025, GE Healthcare, NJ) for optimized contact periods. Autoradiograms were obtained and regions of interest (ROIs) were carefully drawn with the reference of naked-eye observation. Radioactivity was measured using an Amersham Typhoon 5 analyzer system and expressed as photostimulated luminescence values per unit area (PSL/mm^2) or normalized to % of radioactivity vs control.

[2] = Radiometabolic analysis in mouse brain homogenate; format: in vivo; details: 30 min post tracer administration
Description: With the established good BBB penetration ability of [^18F]4, we then performed ex vivo biodistribution studies to obtain more in-depth information on the whole-body distribution and clearance of [^18F]4. Mice were sorted into four groups based on their survival intervals (5, 15, 30, and 60 min) after intravenous administration of [^18F]4. […] To investigate the in vivo stability of [^18F]4 in mouse brains, we conducted a radiometabolic analysis in mouse brain homogenate at 30 min post tracer administration.

LRRK2-G2019S = experiment: PET imaging in LRRK2-G2019S mutant versus wild-type mice; format: in vivo, mouse; details: brain, G2019S mice versus WT mice, p ≤ 0.001
Description: The general procedure for PET studies was described previously[35],[41] with minor modification in this work. Briefly, PET scans were carried out by a Genisys 4 PET scanner (Sofie Biosciences, Culver, CA). Mice were kept under anesthesia using 1–2% (v/v) isoflurane during the scan. The radiotracer (ca. 45 μCi/100 μL) was injected into the tail vein via a preinstalled catheter. A dynamic scan in 3D list mode was acquired for 60 min. The PET dynamic images were reconstructed using G4 software (Analysis Tools and System Setup/Diagnostics Tool, Sofie Biosciences). The radioactivity was decay-corrected and expressed as the standardized uptake value: SUV = (radioactivity per mL tissue/injected radioactivity) × body weight.

T1 sequence (F1LNJ1 1-2526): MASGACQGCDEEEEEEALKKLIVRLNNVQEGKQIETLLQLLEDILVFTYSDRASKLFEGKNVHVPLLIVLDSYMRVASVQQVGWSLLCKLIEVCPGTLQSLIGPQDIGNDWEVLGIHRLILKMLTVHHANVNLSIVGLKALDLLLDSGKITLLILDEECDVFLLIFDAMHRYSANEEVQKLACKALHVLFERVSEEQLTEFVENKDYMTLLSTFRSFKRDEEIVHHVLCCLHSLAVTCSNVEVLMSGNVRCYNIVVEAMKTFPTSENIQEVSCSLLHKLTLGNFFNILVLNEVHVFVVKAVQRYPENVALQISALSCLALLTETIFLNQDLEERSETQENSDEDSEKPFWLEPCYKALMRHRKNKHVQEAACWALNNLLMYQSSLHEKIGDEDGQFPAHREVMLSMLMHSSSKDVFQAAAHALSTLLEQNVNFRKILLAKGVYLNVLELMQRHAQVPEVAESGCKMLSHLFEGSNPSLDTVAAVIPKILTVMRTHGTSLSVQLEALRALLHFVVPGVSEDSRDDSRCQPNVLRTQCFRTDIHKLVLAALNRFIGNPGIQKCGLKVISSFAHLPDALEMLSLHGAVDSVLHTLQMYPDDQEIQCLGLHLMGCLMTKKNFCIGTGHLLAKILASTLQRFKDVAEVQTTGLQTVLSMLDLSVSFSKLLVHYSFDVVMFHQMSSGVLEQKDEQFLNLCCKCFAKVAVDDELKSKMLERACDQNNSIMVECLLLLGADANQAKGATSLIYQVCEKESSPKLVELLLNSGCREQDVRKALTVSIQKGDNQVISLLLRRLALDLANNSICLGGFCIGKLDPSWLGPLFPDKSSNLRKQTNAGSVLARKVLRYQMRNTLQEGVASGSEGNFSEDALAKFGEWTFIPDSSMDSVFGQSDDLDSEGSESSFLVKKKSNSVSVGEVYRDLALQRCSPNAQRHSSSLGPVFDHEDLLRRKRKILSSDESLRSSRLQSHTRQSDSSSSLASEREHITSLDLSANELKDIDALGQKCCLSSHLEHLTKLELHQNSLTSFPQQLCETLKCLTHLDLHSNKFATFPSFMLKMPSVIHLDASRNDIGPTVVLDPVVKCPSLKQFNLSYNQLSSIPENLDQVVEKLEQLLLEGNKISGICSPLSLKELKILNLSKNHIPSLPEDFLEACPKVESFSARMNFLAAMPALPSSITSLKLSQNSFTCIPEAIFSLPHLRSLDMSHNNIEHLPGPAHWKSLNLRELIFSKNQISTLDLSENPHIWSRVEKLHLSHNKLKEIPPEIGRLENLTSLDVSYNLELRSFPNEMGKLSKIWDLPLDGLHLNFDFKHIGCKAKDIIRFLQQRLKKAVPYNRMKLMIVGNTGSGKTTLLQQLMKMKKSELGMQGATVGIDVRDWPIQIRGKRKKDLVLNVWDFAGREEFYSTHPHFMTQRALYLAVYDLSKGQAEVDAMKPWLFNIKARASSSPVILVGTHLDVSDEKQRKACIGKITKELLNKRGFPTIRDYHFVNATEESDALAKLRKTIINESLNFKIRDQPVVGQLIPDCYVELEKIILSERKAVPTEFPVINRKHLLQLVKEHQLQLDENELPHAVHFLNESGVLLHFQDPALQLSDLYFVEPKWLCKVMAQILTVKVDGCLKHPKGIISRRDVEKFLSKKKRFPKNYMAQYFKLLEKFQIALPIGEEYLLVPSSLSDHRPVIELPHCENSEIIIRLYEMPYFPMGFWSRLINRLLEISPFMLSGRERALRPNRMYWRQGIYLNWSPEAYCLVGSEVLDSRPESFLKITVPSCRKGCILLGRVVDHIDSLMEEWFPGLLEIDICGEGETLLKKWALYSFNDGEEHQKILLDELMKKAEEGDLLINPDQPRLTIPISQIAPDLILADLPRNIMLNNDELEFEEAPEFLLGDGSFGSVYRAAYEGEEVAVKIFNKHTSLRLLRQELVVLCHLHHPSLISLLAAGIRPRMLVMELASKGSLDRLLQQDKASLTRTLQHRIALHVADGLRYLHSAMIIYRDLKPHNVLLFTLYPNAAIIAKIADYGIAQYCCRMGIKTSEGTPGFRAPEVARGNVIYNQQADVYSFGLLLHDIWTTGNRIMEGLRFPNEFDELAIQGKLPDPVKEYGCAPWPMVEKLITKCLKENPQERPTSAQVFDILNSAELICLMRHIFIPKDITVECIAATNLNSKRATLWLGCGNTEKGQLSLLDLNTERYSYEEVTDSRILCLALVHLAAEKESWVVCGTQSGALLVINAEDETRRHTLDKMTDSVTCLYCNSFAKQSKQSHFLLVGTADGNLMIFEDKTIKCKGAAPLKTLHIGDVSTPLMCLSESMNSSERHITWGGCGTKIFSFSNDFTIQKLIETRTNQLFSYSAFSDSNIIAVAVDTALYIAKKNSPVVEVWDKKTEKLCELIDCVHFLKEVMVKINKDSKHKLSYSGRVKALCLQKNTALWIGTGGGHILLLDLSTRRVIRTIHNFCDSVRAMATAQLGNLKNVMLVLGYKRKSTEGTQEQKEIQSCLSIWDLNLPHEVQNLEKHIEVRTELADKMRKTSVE

For `N#Cc1cccc(-c2c[nH]c3ncnc(N4CCOCC4)c23)c1[18F]` [[^18F]4], the de-radiofluorination in vivo ([1]; biodistribution study, up to 60 min) was “no remarkable de-radiofluorination”, the Ex vivo biodistribution ([1]; blood, 5 min) was 1.98 ± 0.08 %ID/g and the Ex vivo biodistribution ([1]; blood, 15 min) was 1.12 ± 0.16 %ID/g. It also gave an Ex vivo biodistribution ([1]; blood, 30 min) of 0.60 ± 0.08 %ID/g, an Ex vivo biodistribution ([1]; blood, 60 min) of 0.37 ± 0.09 %ID/g and an Ex vivo biodistribution ([1]; bone, 5 min) of 2.89 ± 2.05 %ID/g. The Ex vivo biodistribution ([1]; bone, 15 min) was 1.06 ± 0.23 %ID/g, the Ex vivo biodistribution ([1]; bone, 30 min) was 0.57 ± 0.05 %ID/g and the Ex vivo biodistribution ([1]; bone, 60 min) was 0.82 ± 0.22 %ID/g. For the same compound, the Ex vivo biodistribution ([1]; brain, 5 min) was 3.61 ± 0.74 %ID/g, the Ex vivo biodistribution ([1]; brain, 15 min) was 0.91 ± 0.21 %ID/g and the Ex vivo biodistribution ([1]; brain, 30 min) was 0.14 ± 0.01 %ID/g. It also gave an Ex vivo biodistribution ([1]; brain, 60 min) of 0.04 ± 0.01 %ID/g, an Ex vivo biodistribution ([1]; heart, 5 min) of 3.63 ± 0.10 %ID/g and an Ex vivo biodistribution ([1]; heart, 15 min) of 1.49 ± 0.17 %ID/g. It also gave an Ex vivo biodistribution ([1]; heart, 30 min) of 0.49 ± 0.07 %ID/g, an Ex vivo biodistribution ([1]; heart, 60 min) of 0.25 ± 0.03 %ID/g and an Ex vivo biodistribution ([1]; kidneys, 5 min) of 9.96 ± 1.01 %ID/g. The Ex vivo biodistribution ([1]; kidneys, 15 min) was 6.41 ± 0.76 %ID/g, the Ex vivo biodistribution ([1]; kidneys, 30 min) was 2.74 ± 0.12 %ID/g and the Ex vivo biodistribution ([1]; kidneys, 60 min) was 1.32 ± 0.15 %ID/g. The Ex vivo biodistribution ([1]; liver, 5 min) was 24.68 ± 10.36 %ID/g, the Ex vivo biodistribution ([1]; liver, 15 min) was 15.53 ± 2.40 %ID/g and the Ex vivo biodistribution ([1]; liver, 30 min) was 7.34 ± 0.78 %ID/g. The Ex vivo biodistribution ([1]; liver, 60 min) was 3.97 ± 1.30 %ID/g, the Ex vivo biodistribution ([1]; lungs, 5 min) was 8.88 ± 2.99 %ID/g and the Ex vivo biodistribution ([1]; lungs, 15 min) was 5.46 ± 2.28 %ID/g. It also gave an Ex vivo biodistribution ([1]; lungs, 30 min) of 2.86 ± 0.67 %ID/g, an Ex vivo biodistribution ([1]; lungs, 60 min) of 1.65 ± 0.35 %ID/g and an Ex vivo biodistribution ([1]; muscle, 5 min) of 2.34 ± 1.06 %ID/g. It also gave an Ex vivo biodistribution ([1]; muscle, 15 min) of 2.04 ± 2.24 %ID/g, an Ex vivo biodistribution ([1]; muscle, 30 min) of 0.38 ± 0.11 %ID/g and an Ex vivo biodistribution ([1]; muscle, 60 min) of 0.39 ± 0.40 %ID/g. For the same compound, the Ex vivo biodistribution ([1]; pancreas, 5 min) was 16.19 ± 1.99 %ID/g, the Ex vivo biodistribution ([1]; pancreas, 15 min) was 5.75 ± 2.56 %ID/g and the Ex vivo biodistribution ([1]; pancreas, 30 min) was 1.26 ± 0.25 %ID/g. The Ex vivo biodistribution ([1]; pancreas, 60 min) was 0.76 ± 0.55 %ID/g, the Ex vivo biodistribution ([1]; small intestine, 5 min) was 58.87 ± 18.10 %ID/g and the Ex vivo biodistribution ([1]; small intestine, 15 min) was 58.62 ± 13.63 %ID/g. The Ex vivo biodistribution ([1]; small intestine, 30 min) was 20.55 ± 17.97 %ID/g, the Ex vivo biodistribution ([1]; small intestine, 60 min) was 26.44 ± 36.34 %ID/g and the Ex vivo biodistribution ([1]; spleen, 5 min) was 4.38 ± 0.99 %ID/g. It also gave an Ex vivo biodistribution ([1]; spleen, 15 min) of 2.12 ± 1.24 %ID/g, an Ex vivo biodistribution ([1]; spleen, 30 min) of 0.52 ± 0.07 %ID/g and an Ex vivo biodistribution ([1]; spleen, 60 min) of 0.39 ± 0.29 %ID/g. For the same compound, the “initial radioactive signals in peripheral organs” value ([1]; spleen, heart, lungs, pancreas, stomach, small intestine, kidneys, liver) was over 4 %ID/g, the Ex vivo biodistribution ([1]; stomach, 5 min) was 5.72 ± 2.69 %ID/g and the Ex vivo biodistribution ([1]; stomach, 15 min) was 5.69 ± 1.06 %ID/g. The Ex vivo biodistribution ([1]; stomach, 30 min) was 7.88 ± 5.2 %ID/g, the Ex vivo biodistribution ([1]; stomach, 60 min) was 2.41 ± 1.31 %ID/g and the “radioactivity levels under blocking with GNE-0877” value (LRRK2; LRRK2-deficient brain regions (cerebellum and midbrain)) was “no obvious blocking results”. The “radioactivity levels under blocking with GNE-0877” value (LRRK2; LRRK2-rich brain regions (hippocampus, cerebral cortex, striatum, thalamus)) was “significantly reduced”, the “parent fraction in mouse brain homogenate” value [2] was 69% and the “increase of radioactivity accumulation based on AUC” value (LRRK2-G2019S) was “around 22%”.
